In patent publication US8895547B2, “Substituted phenyl-oxathiazine derivatives, method for producing them, drugs containing said compounds and the use thereof” (Sanofi, priority 2011, dated 2014):

Each compound was assayed against T1, human 11β-HSD1 (Homo sapiens, UniProt P28845) (assay: Enzymatic 11beta-HSD1 test (SPA-based detection)). Conditions: human 11β-HSD1 microsome fraction, [1,2-3H]-cortisone, NADPH, 37° C. 1 hour.
T1 construct: host or cells: microsome fraction
Type: biochemical
Procedure: Enzymatic 11beta-HSD1 test:
To measure the activity of the compounds, an SPA-based detection method (Solly et al. 2005) was employed. First of all, 20 μl of the human 11β-HSD1 microsome fraction (0.2 μg of protein), prepared in 50 mM HEPES, 0.1% BSA (w/v), were applied to a plate with 384 wells. The test compounds (0.09 μl) were applied to the assay plate in 100% DMSO. The reaction was started by addition of 20 μl of [1,2-^3H]-cortisone (0.1 μCi/[…]) in assay buffer comprising 25 mM HEPES, 100 mM KCl, 5 mM NaCl, 2 mM MgCl2 and 0.25 mM NADPH. The plate was agitated at 37° C. for 1 hour. At the same time, a stop solution comprising 20 mg/ml SPA-PVT beads, 1.6 mg/ml monoclonal cortisol antibody and 0.01 mM SSR110887 (inhibitor from the Biovitrium patent) in 50 mM HEPES, 1 M NaCl and 1 M KCl was stirred at room temperature. To stop the reaction, 25 μl of the stop solution were added to each well. The plate was agitated gently at room temperature for 1 further hour and then centrifuged at 500 gav for 1 minute, in order that the SPA beads could settle out. The plate was then read in a Wallac-1450-Microbeta unit with a standard SPA program (counting time 1 min/well). The comparative compound was glycyrrhetinic acid.
Protein and radioactive substrate were dispensed with a Biomek FX unit (Beckman Coulter) for handling liquids. The test compounds were added with a Cybi-Well equipped with a 90 nl pin tool (CyBio).
Lit.: Solly S, Mundt S S, Zokian H J, Juy-Fang Ding G, Hermanowski-Vosatka A, Strulovici B and Zheng W. High-throughput screening of 11β-Hydroxysteroid dehydrogenase type 1 in scintillation proximity format. Assay Drug Dev Technol 2005; 3:377-384.

T1 sequence (P28845 whole entry): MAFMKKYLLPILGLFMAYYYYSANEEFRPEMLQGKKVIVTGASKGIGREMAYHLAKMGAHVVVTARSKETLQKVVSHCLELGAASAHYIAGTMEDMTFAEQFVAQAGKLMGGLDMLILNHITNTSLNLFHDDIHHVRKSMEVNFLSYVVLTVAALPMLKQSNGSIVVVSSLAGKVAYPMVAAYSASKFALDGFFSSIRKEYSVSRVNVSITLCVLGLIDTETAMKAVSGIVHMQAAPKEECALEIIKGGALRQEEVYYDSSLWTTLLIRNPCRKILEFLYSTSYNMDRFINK

Compound	IC50 [nM]
CC1(C)OC(N[C@@H](CCO)c2ccccc2F)=NS(=O)(=O)C1c1ccc(N2CCN(CCC(F)(F)F)CC2)cc1 (mixture of isomers) [Example 131, (S)-3-(6,6-Dimethyl-4,4-dioxo-5-{4-[4-(3,3,3-trifluoropropyl)-piperazin-1-yl]-phenyl}-5,6-dihydro-4H-4lambda6-[1,4,3]oxathiazin-2-ylamino)-3-(2-fluorophenyl)-propan-1-ol]	17
CC1(C)OC(N[C@@H](CCO)c2ccccc2)=NS(=O)(=O)C1c1ccccc1 (single isomer, unassigned) [Example 28]	16
CC1(C)OC(N[C@@H](CCO)c2ccccc2)=NS(=O)(=O)C1c1ccccc1 (single isomer, unassigned) [Example 29]	23
CC1(C)OC(N[C@@H](CCO)c2ccccc2F)=NS(=O)(=O)C1c1ccc(-c2ccccc2)cc1 (single isomer, unassigned) [Example 69]	13
CC1(C)OC(N[C@@H](CCO)c2ccccc2F)=NS(=O)(=O)C1c1ccc(-c2ccccc2)cc1 (single isomer, unassigned) [Example 70]	19
CC1(C)OC(N[C@@H](CCO)c2ccccc2F)=NS(=O)(=O)C1(C)c1cccc(-c2ccccc2)c1 (single isomer, unassigned) [Example 74]	12
CC1(C)OC(N[C@@H](CCO)c2ccccc2F)=NS(=O)(=O)C1(C)c1cccc(-c2ccccc2)c1 (single isomer, unassigned) [Example 75]	44
CC(C)(C)c1ccc(C2C(C)(C)OC(N[C@@H](CCO)c3ccccc3F)=NS2(=O)=O)cc1 (single isomer, unassigned) [Example 84]	15
CC(C)(C)c1ccc(C2C(C)(C)OC(N[C@@H](CCO)c3ccccc3F)=NS2(=O)=O)cc1 (single isomer, unassigned) [Example 85]	9
CC1(C)OC(N[C@@H](CCO)c2ccccc2F)=NS(=O)(=O)C1c1ccc(N2CCN(CCC(F)(F)F)CC2)cc1 (single isomer, unassigned) [Example 182]	6
CC1(C)OC(N[C@@H](CCO)c2ccccc2F)=NS(=O)(=O)C1c1ccc(N2CCN(CCC(F)(F)F)CC2)cc1 (single isomer, unassigned) [Example 183]	20
CC1(C)OC(N[C@@H](CCO)c2ccccc2)=NS(=O)(=O)C1c1cccc(C(F)(F)F)c1 (stereo partly drawn) [Compound 21, (S)-3-[6,6-Dimethyl-4,4-dioxo-5-(3-trifluoromethylphenyl)-5,6-dihydro-4H-4lambda6-[1,4,3]oxathiazin-2-ylamino]-3-phenylpropan-1-ol]	22
CC1(C)OC(N[C@@H](CCO)c2ccccc2)=NS(=O)(=O)C1(C)c1cccc(N2CCN(S(C)(=O)=O)CC2)c1 (stereo partly drawn) [Compound 34, (S)-3-{5-[3-(4-Methanesulfonylpiperazin-1-yl)-phenyl]-5,6,6-trimethyl-4,4-dioxo-5,6-dihydro-4H-4lambda6-[1,4,3]oxathiazin-2-ylamino}-3-phenylpropan-1-ol]	17
C[C@H](NC1=NS(=O)(=O)C(C)(c2cccc(N3CCN(S(C)(=O)=O)CC3)c2)C(C)(C)O1)c1ccccc1F (stereo partly drawn) [Compound 35, [(S)-1-(2-Fluorophenyl)ethyl]-{5-[3-(4-methanesulfonylpiperazin-1-yl)-phenyl]-5,6,6-trimethyl-4,4-dioxo-5,6-dihydro-4H-4lambda6-[1,4,3]oxathiazin-2-yl}amine]	15
C[C@H](NC1=NS(=O)(=O)C(C)(c2cccc(N3CCCC3)c2)C(C)(C)O1)c1ccccc1F (stereo partly drawn) [Compound 36, [(S)-1-(2-Fluorophenyl)ethyl]-[5,6,6-trimethyl-4,4-dioxo-5-(3-pyrrolidin-1-ylphenyl)-5,6-dihydro-4H-4lambda6-[1,4,3]oxathiazin-2-yl]amine]	15
CC1(C)OC(N[C@@H](CCO)c2ccccc2)=NS(=O)(=O)C1(C)c1cccc(N2CCCC2)c1 (stereo partly drawn) [Compound 38, (S)-3-Phenyl-3-[5,6,6-trimethyl-4,4-dioxo-5-(3-pyrrolidin-1-ylphenyl)-5,6-dihydro-4H-4lambda6-[1,4,3]oxathiazin-2-ylamino]propan-1-ol]	19
CC1(C)OC(N[C@@H](CCO)c2ccccc2)=NS(=O)(=O)C1(C)c1cccc(N2CCCC2)c1 (stereo partly drawn) [Compound 39, (S)-3-Phenyl-3-[5,6,6-trimethyl-4,4-dioxo-5-(3-pyrrolidin-1-ylphenyl)-5,6-dihydro-4H-4lambda6-[1,4,3]oxathiazin-2-ylamino]propan-1-ol]	24
CC1(C)OC(N[C@@H](CCO)c2ccccc2)=NS(=O)(=O)C1(C)c1cccc(-c2cncnc2)c1 (stereo partly drawn) [Compound 40, (S)-3-Phenyl-3-[5,6,6-trimethyl-4,4-dioxo-5-(3-pyrimidin-5-ylphenyl)-5,6-dihydro-4H-4lambda6-[1,4,3]oxathiazin-2-ylamino]propan-1-ol]	15
C[C@H](NC1=NS(=O)(=O)C(C)(c2cccc(-c3cncnc3)c2)C(C)(C)O1)c1ccccc1F (stereo partly drawn) [Compound 41, [(S)-1-(2-Fluorophenyl)ethyl]-[5,6,6-trimethyl-4,4-dioxo-5-(3-pyrimidin-5-ylphenyl)-5,6-dihydro-4H-4lambda6-[1,4,3]oxathiazin-2-yl]amine]	10
C[C@H](NC1=NS(=O)(=O)C(C)(c2ccccc2)C(C)(C)O1)c1ccccc1F (stereo partly drawn) [Compound 43, [(S)-1-(2-Fluorophenyl)ethyl]-(5,6,6-trimethyl-4,4-dioxo-5-phenyl-5,6-dihydro-4H-4lambda6-[1,4,3]oxathiazin-2-yl)amine]	7
CC1(C)OC(N[C@@H](CCO)c2ccccc2F)=NS(=O)(=O)C1(C)c1cccc(N2CCCC2)c1 (stereo partly drawn) [Compound 45, (S)-3-(2-Fluorophenyl)-3-[5,6,6-trimethyl-4,4-dioxo-5-(3-pyrrolidin-1-ylphenyl)-5,6-dihydro-4H-4lambda6-[1,4,3]oxathiazin-2-ylamino]propan-1-ol]	11
CC1(C)OC(N[C@@H](CCO)c2ccccc2F)=NS(=O)(=O)C1(C)c1ccccc1 (stereo partly drawn) [Compound 48, (S)-3-(2-Fluorophenyl)-3-(5,6,6-trimethyl-4,4-dioxo-5-phenyl-5,6-dihydro-4H-4lambda6-[1,4,3]oxathiazin-2-ylamino)propan-1-ol]	5
CC1(C)OC(N[C@@H](CCO)c2ccccc2F)=NS(=O)(=O)C1(C)c1cccc(N2CCCC2)c1 (stereo partly drawn) [Compound 49, (S)-3-(2-Fluorophenyl)-3-[5,6,6-trimethyl-4,4-dioxo-5-(3-pyrrolidin-1-ylphenyl)-5,6-dihydro-4H-4lambda6-[1,4,3]oxathiazin-2-ylamino]propan-1-ol]	24
C[C@H](NC1=NS(=O)(=O)C(c2ccc(-c3ccccc3)cc2)C(C)(C)O1)c1ccccc1F (stereo partly drawn) [Compound 52, (5-Biphenyl-4-yl-6,6-dimethyl-4,4-dioxo-5,6-dihydro-4H-4lambda6-[1,4,3]oxathiazin-2-yl)-[(S)-1-(2-fluorophenyl)ethyl]amine]	64
C[C@H](NC1=NS(=O)(=O)C(C)(c2ccccc2)C(C)(C)O1)c1ccccc1F (stereo partly drawn) [Compound 56, [(S)-1-(2-Fluorophenyl)ethyl]-(5,6,6-trimethyl-4,4-dioxo-5-phenyl-5,6-dihydro-4H-4lambda6-[1,4,3]oxathiazin-2-yl)amine, stereomer 1]	8
C[C@H](NC1=NS(=O)(=O)C(C)(c2ccccc2)C(C)(C)O1)c1ccccc1F (stereo partly drawn) [Compound 57, [(S)-1-(2-Fluorophenyl)ethyl]-(5,6,6-trimethyl-4,4-dioxo-5-phenyl-5,6-dihydro-4H-4lambda6-[1,4,3]oxathiazin-2-yl)amine, stereomer 2]	7
CC(C)(C)c1ccc(C2C(C)(C)OC(N[C@@H](CCO)c3ccccc3F)=NS2(=O)=O)cc1 (stereo partly drawn) [Compound 58, (S)-3-[5-(4-tert-Butylphenyl)-6,6-dimethyl-4,4-dioxo-5,6-dihydro-4H-4lambda6-[1,4,3]oxathiazin-2-ylamino]-3-(2-fluorophenyl)propan-1-ol]	21
C[C@H](NC1=NS(=O)(=O)C(c2ccc(C(C)(C)C)cc2)C(C)(C)O1)c1ccccc1F (stereo partly drawn) [Compound 59, [5-(4-tert-Butylphenyl)-6,6-dimethyl-4,4-dioxo-5,6-dihydro-4H-4lambda6-[1,4,3]oxathiazin-2-yl]-[(S)-1-(2-fluorophenyl)ethyl]amine]	55
CC(C)(C)c1ccc(C2C(C)(C)OC(N[C@@H](CCO)c3ccccc3)=NS2(=O)=O)cc1 (stereo partly drawn) [Compound 60, (S)-3-[5-(4-tert-Butylphenyl)-6,6-dimethyl-4,4-dioxo-5,6-dihydro-4H-4lambda6-[1,4,3]oxathiazin-2-ylamino]-3-phenylpropan-1-ol]	43
CC(C)(C)c1ccc(C2(C)C(C)(C)OC(N[C@@H](CCO)c3ccccc3F)=NS2(=O)=O)cc1 (stereo partly drawn) [Compound 61, (S)-3-[5-(4-tert-Butylphenyl)-5,6,6-trimethyl-4,4-dioxo-5,6-dihydro-4H-4lambda6-[1,4,3]oxathiazin-2-ylamino]-3-(2-fluorophenyl)propan-1-ol]	14
